For 28 compounds, IC50 results are on record in patent US20090105283A1, “3-HYDROQUINAZOLIN-4-ONE DERIVATIVES FOR USE AS STEAROYL CoA DESATURASE INHIBITORS” (priority 2007, published 2009).

Structures are written as SMILES. pIC50: −log10 of the molar value.

The assay addresses T1, stearoyl-CoA desaturase (SCD) (Rattus norvegicus, UniProt P07308).
T1 construct: The microsomes were quickly thawed and added to assay buffer so that a concentration of 0.4 mg/ml was achieved; from tissue
T1 sequence (P07308 1-358): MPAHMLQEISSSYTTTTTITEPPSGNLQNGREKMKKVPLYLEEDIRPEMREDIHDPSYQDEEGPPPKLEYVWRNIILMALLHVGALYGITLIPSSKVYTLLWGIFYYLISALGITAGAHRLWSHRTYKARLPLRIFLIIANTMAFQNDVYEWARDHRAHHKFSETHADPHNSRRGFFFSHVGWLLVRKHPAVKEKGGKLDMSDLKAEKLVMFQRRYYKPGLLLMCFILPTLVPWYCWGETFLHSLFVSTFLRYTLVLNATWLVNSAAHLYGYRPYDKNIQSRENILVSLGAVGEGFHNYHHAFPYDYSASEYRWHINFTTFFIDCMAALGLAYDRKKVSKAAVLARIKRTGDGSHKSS
The assay can be described thus: SCD assay with rat liver microsomes ([3H]stearoyl CoA, adapted from Talamo and Bloch). Type of assay: biochemical. To be noted: Table 1; rat liver microsomes 0.2 mg/ml assay final, [3H]stearoyl CoA substrate, 30 min preincubation, 45 min reaction, room temperature. The text has this: Male Spraque Dawley Rats were placed on regimented fasting protocol for one week to stimulate SCD enzymatic activity. 48-hour periods were alternated between feeding and fasting to induce and down-regulate SCD activity with SCD activity being induced via carbohydrate rich diet prior to liver perfusion and collection.
The rats were anesthetized with Isoflurane inhalation anesthetic, the liver perfused with cold phosphate buffered saline (PBS), weighed, and chilled in cold homogenization buffer (250 mM sucrose, 10 mM Tris, 1 mM EDTA, pH 7.6.
The livers were finely minced and placed in homogenization tube. 40 mL of homogenization buffer was added to the homogenization tube and the liver homogenized and centrifuged in a pre-chilled […] for 10 min at 4° C.
Following centrifugation, the supernatant was collected and the pellet removed and discarded. The supernatant was centrifuge at 10,000 G for 35 minutes. Following centrifugation, the supernatant was collect and the pellet discarded. The supernatant was then centrifuged in a pre-chilled 45-Ti rotor at 130,000 G (41,000 RPM) for 90 minutes at 4° C.
The supernatant was then aspirated off and the collected microsomal pellet washed in 25 mL of Glycerol PBS (1×PBS 7.4, 20% Glycerol) and resuspended in 4-5 volumes of Glycerol PBS.
The protein concentration of the microsomal preparation was determined by BCA assay (Pierce) and the microsomes were aliquoted and stored at −80° C.
Biobeads were ground to a smaller size in a mortar and pestle and resuspended in 3.6% TCA. The beads were then filtered through […] mesh.
SCD was determined in the desaturase assay buffer. This assay buffer contained 0.1 M Tris buffer, pH 7.2, 2 mM NADH, 4.8 mM ATP, 0.5 mM CoA, 4.8 mM MgCl2, and 0.1% BSA.
1 μl of each compound of Formula I was added to an assay plate by a low volume (0.5-10 μL) multichannel pipette. A DMSO control was also prepared. The microsomes were quickly thawed and added to assay buffer so that a concentration of 0.4 mg/ml was achieved (0.2 mg/ml assay final). 50 μl of the microsome suspension in assay buffer was then added into each well in the compound assay plate, the plate was covered, and the microsomes preincubated with the compounds for 30 minutes on the orbital shaker, 50-75 rpm, at room temperature.
The reaction mixtures were then incubated for 45 minutes on the orbital shaker at 50-75 rpm at room temperature.
The reaction was terminated by the addition of 10 μl of 21% trichloroacetic acid (TCA) to the reaction mixture followed incubation on the orbital shaker for 30 minutes at 50-75 rpm at room temperature followed by centrifugation for 5 minutes at 3700 rpm.
50 μl of a 6% Bio-Bead suspension in H2O was added to the reaction mixture and the assay plate was sealed. The Bio-Bead mixture was incubated on the orbital shaker for 1 hour, 100-150 rpm at room temperature, and then the mixture was centrifuged at 2000 g for 5 minutes to pellet the Bio-Beads.
25 μl of the supernatant was harvested from each well and transferred to a detection plate. 100 μl of OptiPhase SuperMix scinitillation cocktail (containing sufficient NaOH to neutralize the TCA) was added and the solutions mixed by vigorous shaking (300-400 rpm) for 5 minutes at room temperature.
Background: Liver microsomes are vesicles of endoplasmic reticulum, rich in cytochrome P450 enzymes.
A word on the pIC50: it is the IC50 on a negative log10 scale, so that one unit is a factor of ten. Turning to `COCCNC(=O)Nc1ccc2ncn(Cc3ccc(Cl)c(Cl)c3)c(=O)c2c1` [XCIII, N-{3-[(3,4-dichlorophenyl)methyl]-4-oxo(3-hydroquinazolin-6-yl)}[(2-methoxyethyl)amino]carboxamide], the negative-log IC50 (pIC50) is 5.21.
As for `CC(=O)OCC(=O)Nc1ccc2ncn(Cc3cccc(C(F)(F)F)c3)c(=O)c2c1` [XCIV, [N-(4-oxo-3-{[3-(trifluoromethyl)phenyl]methyl}-3-hydroquinazolin-6-yl)carbamoyl]methyl acetate], the figure is 5.77.
As for `O=C(CO)Nc1ccc2ncn(Cc3ccc(Cl)c(F)c3)c(=O)c2c1` [XCIX, N-{3-[(4-chloro-3-fluorophenyl)methyl]-4-oxo(3-hydroquinazolin-6-yl)}-2-hydroxyacetamide], the figure is 5.94; as for `O=C(CO)Nc1ccc2ncn(Cc3cccc(C(F)(F)F)c3)c(=O)c2c1` [XCV, 2-hydroxy-N-(4-oxo-3-{[3-(trifluoromethyl)phenyl]methyl}(3-hydroquinazolin-6-yl))acetamide], 5.86; as for `CC(=O)OCC(=O)Nc1ccc2ncn(Cc3ccc(C(F)(F)F)cc3)c(=O)c2c1` [XCVI, [N-(4-oxo-3-{[4-(trifluoromethyl)phenyl]methyl}-3-hydroquinazolin-6-yl)carbamoyl]methyl acetate], 5.56.
As for `O=C(CO)Nc1ccc2ncn(Cc3ccc(C(F)(F)F)cc3)c(=O)c2c1` [XCVII, 2-hydroxy-N-(4-oxo-3-{[4-(trifluoromethyl)phenyl]methyl}(3-hydroquinazolin-6-yl))acetamide], the figure is 5.50.
For the compound `CC(=O)OCC(=O)Nc1ccc2ncn(Cc3ccc(Cl)c(F)c3)c(=O)c2c1` [XCVIII, (N-{3-[(4-chloro-3-fluorophenyl)methyl]-4-oxo-3-hydroquinazolin-6-yl}carbamoyl)methyl acetate], the negative-log IC50 (pIC50) is 5.88.
The result for `Cc1ccc(OC(=O)Nc2ccc3ncn(Cc4ccc(Cl)c(Cl)c4)c(=O)c3c2)cc1` [XI, N-{3-[(3,4-dichlorophenyl)methyl]-4-oxo(3-hydroquinazolin-6-yl)}(4-methylphenoxy)carboxamide] reads 5.57.
With `O=C(Nc1ccc2ncn(Cc3ccc(Cl)c(Cl)c3)c(=O)c2c1)Oc1ccc(F)cc1` [XII, N-{3-[(3,4-dichlorophenyl)methyl]-4-oxo(3-hydroquinazolin-6-yl)}(4-fluorophenoxy)carboxamide], the negative-log IC50 (pIC50) was 4.89.
`COC(=O)Nc1ccc2ncn(Cc3ccc(Cl)c(Cl)c3)c(=O)c2c1` [XIII, N-{3-[(3,4-dichlorophenyl)methyl]-4-oxo(3-hydroquinazolin-6-yl)}methoxycarboxamide] gave a pIC50 of 5.33.
The result for `C=CCOC(=O)Nc1ccc2ncn(Cc3ccc(Cl)cc3)c(=O)c2c1` [XIV, N-{3-[(4-chlorophenyl)methyl]-4-oxo(3-hydroquinazolin-6-yl)}prop-2-enyloxycarboxamide] reads 4.59; that for `CC(=O)NCC(=O)Nc1ccc2ncn(Cc3ccc(Cl)c(Cl)c3)c(=O)c2c1` [XIX, 2-(acetylamino)-N-{3-[(3,4-dichlorophenyl)methyl]-4-oxo(3-hydroquinazolin-6-yl)}acetamide], 4.93; that for `O=C(COc1ccccc1)Nc1ccc2ncn(Cc3ccc(F)c(Cl)c3)c(=O)c2c1` [XL, N-{3-[(3-chloro-4-fluorophenyl)methyl]-4-oxo(3-hydroquinazolin-6-yl)}-2-phenoxyacetamide], 5.02.
For the compound `O=C(COc1ccccc1)Nc1ccc2ncn(Cc3ccc4ccsc4c3)c(=O)c2c1` [XLI, N-[3-(benzo[b]thiophen-6-ylmethyl)-4-oxo(3-hydroquinazolin-6-yl)]-2-phenoxyacetamide], the negative logarithm of the IC50 (pIC50) is 5.10.
As for `O=C(CCC(=O)c1ccccc1)Nc1ccc2ncn(Cc3ccc(Cl)c(Cl)c3)c(=O)c2c1` [XLII, N-{3-[(3,4-dichlorophenyl)methyl]-4-oxo(3-hydroquinazolin-6-yl)}-4-oxo-4-phenylbutanamide], the figure is 5.66; as for `O=C(COc1cccc(F)c1)Nc1ccc2ncn(Cc3ccc(Cl)cc3)c(=O)c2c1` [XLIII, N-{3-[(4-chlorophenyl)methyl]-4-oxo(3-hydroquinazolin-6-yl)}-2-(3-fluorophenoxy)acetamide], 5.19; as for `O=C(COc1ccccc1)Nc1ccc2c(=O)n(Cc3ccc(Cl)cc3)cnc2c1` [XLIV, N-{3-[(4-chlorophenyl)methyl]-4-oxo(3-hydroquinazolin-7-yl)}-2-phenoxyacetamide], 5.80.
The result for `O=C(COc1cccnc1)Nc1ccc2c(=O)n(Cc3ccc(Cl)cc3)cnc2c1` [XLIX, N-{3-[(4-chlorophenyl)methyl]-4-oxo(3-hydroquinazolin-7-yl)}-2-(3-pyridyloxy)acetamide] reads 5.60; that for `O=C(Nc1ccc2ncn(Cc3ccc4sccc4c3)c(=O)c2c1)OCc1ccccc1` [XLV, N-[3-(benzo[b]thiophen-5-ylmethyl)-4-oxo(3-hydroquinazolin-6-yl)](phenylmethoxy)carboxamide], 6.07.
The result for `O=C(Nc1ccc2ncn(Cc3ccc(F)c(Cl)c3)c(=O)c2c1)OCc1ccccc1` [XLVI, N-{3-[(3-chloro-4-fluorophenyl)methyl]-4-oxo(3-hydroquinazolin-6-yl)}(phenylmethoxy)carboxamide] reads 6.35; that for `CC(=O)OCC(=O)Nc1ccc2ncn(Cc3ccc(Cl)c(Cl)c3)c(=O)c2c1` [XLVII, (N-{3-[(3,4-dichlorophenyl)methyl]-4-oxo-3-hydroquinazolin-6-yl}carbamoyl)methyl acetate], 7.00; that for `O=C(Nc1ccc2c(=O)n(Cc3ccc(Cl)cc3)cnc2c1)OCc1ccccc1` [XLVIII, N-{3-[(4-chlorophenyl)methyl]-4-oxo(3-hydroquinazolin-7-yl)}(phenylmethoxy)carboxamide], 7.05.
Compound `O=C(COc1ccccc1)Nc1ccc2ncn(Cc3ccc(Cl)c(Cl)c3)c(=O)c2c1` [XV, N-{3-[(3,4-dichlorophenyl)methyl]-4-oxo(3-hydroquinazolin-6-yl)}-2-phenoxyacetamide] showed a negative-log IC50 (pIC50) of 6.66.
As for `O=C(Nc1ccc2ncn(CCc3ccc(Cl)cc3)c(=O)c2c1)OCc1ccccc1` [XVI, N-{3-[2-(4-chlorophenyl)ethyl]-4-oxo(3-hydroquinazolin-6-yl)}(phenylmethoxy)carboxamide], the figure is 6.33; as for `COc1ccc(OCC(=O)Nc2ccc3ncn(Cc4ccc(Cl)c(Cl)c4)c(=O)c3c2)cc1` [XVII, N-{3-[(3,4-dichlorophenyl)methyl]-4-oxo(3-hydroquinazolin-6-yl)}-2-(4-methoxyphenoxy)acetamide], 5.53.
In turn, `O=C(COc1ccc(F)cc1)Nc1ccc2ncn(Cc3ccc(Cl)c(Cl)c3)c(=O)c2c1` [XVIII, N-{3-[(3,4-dichlorophenyl)methyl]-4-oxo(3-hydroquinazolin-6-yl)}-2-(4-fluorophenoxy)acetamide] gave a negative logarithm of the IC50 (pIC50) of 5.68.
The compound `Cc1cc(C)cc(OCC(=O)Nc2ccc3ncn(Cc4ccc(Cl)c(Cl)c4)c(=O)c3c2)c1` [XX, N-{3-[(3,4-dichlorophenyl)methyl]-4-oxo(3-hydroquinazolin-6-yl)}-2-(3,5-dimethylphenoxy)acetamide] showed a negative logarithm of the IC50 (pIC50) of 5.53.
As for `Cc1cccc(C)c1OCC(=O)Nc1ccc2ncn(Cc3ccc(Cl)c(Cl)c3)c(=O)c2c1` [XXI, N-{3-[(3,4-dichlorophenyl)methyl]-4-oxo(3-hydroquinazolin-6-yl)}-2-(2,6-dimethylphenoxy)acetamide], the figure is 5.46.
